# Results taken from BindingDB's records for doi:10.7270/Q2736PBV (Broad Institute, 2009).
# Target: T1, Streptokinase A (Streptococcus pyogenes serotype M1, UniProt P10520)
# T1 sequence (P10520 whole entry): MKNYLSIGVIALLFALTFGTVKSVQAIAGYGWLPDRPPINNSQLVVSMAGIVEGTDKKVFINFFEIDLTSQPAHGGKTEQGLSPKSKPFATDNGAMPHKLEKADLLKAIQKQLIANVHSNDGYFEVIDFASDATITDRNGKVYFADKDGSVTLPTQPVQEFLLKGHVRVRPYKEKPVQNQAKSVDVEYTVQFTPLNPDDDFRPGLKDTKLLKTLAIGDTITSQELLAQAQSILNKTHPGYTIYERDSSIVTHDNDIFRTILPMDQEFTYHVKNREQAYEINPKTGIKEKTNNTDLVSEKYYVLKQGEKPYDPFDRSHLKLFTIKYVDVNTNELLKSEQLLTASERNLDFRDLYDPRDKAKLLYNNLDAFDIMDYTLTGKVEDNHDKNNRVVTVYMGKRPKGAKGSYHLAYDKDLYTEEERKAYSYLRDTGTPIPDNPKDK
# Test: viability-normalized secreted streptokinase activity reduction – plasminogen activation absorbance, OD405, dose response (AID 1914)
row,Compound,EC50
1,CCCc1sc(N=NCc2ccccn2)nc1-c1ccc(F)cc1 [SMR000116776],> 150 µM
2,O=C1C2=C3C(=C/C1=C\NNC(=O)c1ccccc1O)CCCN3CCC2 [MLS000332414],> 150 µM
3,"Oc1nc(Nc2ccc(Cl)cc2)sc1Cc1cccc(Cl)c1Cl [2-(4-chloroanilino)-5-(2,3-dichlorobenzyl)-2-thiazolin-4-one]",131 µM
4,Cc1ccc2nc(-n3c(O)c[nH]c3=S)sc2c1,> 150 µM
5,"COc1cccc(N=NCc2cccc(Br)c2O)c1 [(6E)-2-bromo-6-[[2-(3-methoxyphenyl)hydrazinyl]methylidene]cyclohexa-2,4-dien-1-one]",19.6 µM
6,CCc1ccc2[nH]c(=O)c(C3c4ccc5cccnc5c4OC(=N)C3C#N)cc2c1 (stereo not given),> 150 µM
7,CC(N=Nc1nc(-c2ccccc2F)nc2ccccc12)c1ccccc1O (stereo not given) [2-(1-{[2-(2-Fluoro-phenyl)-quinazolin-4-yl]-hydrazono}-ethyl)-phenol],> 150 µM
8,"CCCCCCn1[nH]c(C)c(C(=O)c2ccc(Cl)cc2)c1=O [4-(4-Chloro-benzoyl)-2-hexyl-5-methyl-2,4-dihydro-pyrazol-3-one]",> 150 µM
9,CC(C)CN1C(=O)/C(=N\NC(=O)c2cccc(S(=O)(=O)N3CCCCC3)c2)c2ccccc21 [MLS000417389],> 150 µM
10,COc1ccc(OC)c(NC=C2C(=O)NC(=S)N(Cc3ccccc3)C2=O)c1,> 150 µM
11,Cc1ccc(C(=O)C2C(=O)C(=O)N(Cc3ccco3)C2c2cccc(Br)c2)o1 (stereo not given) [2-(3-bromophenyl)-1-(2-furanylmethyl)-4-hydroxy-3-[(5-methyl-2-furanyl)-oxomethyl]-2H-pyrrol-5-one],> 150 µM
12,Cc1cc(C)n(C(=O)C(C#N)N=Nc2cc(Cl)cc(Cl)c2)n1 (stereo not given) [SMR000335596],> 150 µM
13,O=C(CSc1ccc(Cl)cc1)Nc1cc(=O)n(-c2ccccc2)[nH]1 [SMR000672521],9.33 µM
14,"C=CCN1C(=O)NC(=O)C(=C(CC)Nc2ccc(N(C)C)cc2)C1=O [(5E)-5-[1-[4-(dimethylamino)anilino]propylidene]-1-prop-2-enyl-1,3-diazinane-2,4,6-trione]",> 150 µM
15,"C=c1[nH]n(-c2ccccc2)c(=O)c1=C(C=Cc1cccc(OC)c1OC)c1ccc(Br)cc1 [4-[1-(4-Bromo-phenyl)-3-(2,3-dimethoxy-phenyl)-allylidene]-5-methyl-2-phenyl-2,4-dihydro-pyrazol-3-one]",> 150 µM
16,Cc1cc2nc(-n3c(O)c[nH]c3=S)sc2cc1C [SMR000272190],> 150 µM
17,O=C1C(=O)N(Cc2ccco2)C(c2cccc(Cl)c2)C1C(=O)c1ccco1 (stereo not given) [SMR000665558],> 150 µM
18,"O=[N+]([O-])c1cc(Br)c(O)c(CN=Nc2nnnn2-c2cccc3ccccc23)c1 [(6E)-2-bromo-6-[[2-(1-naphthalen-1-yltetrazol-5-yl)hydrazinyl]methylidene]-4-nitrocyclohexa-2,4-dien-1-one]",> 150 µM
19,"C[n+]1ccc(CN=Nc2nc(Cl)c(C#N)c(Cl)c2Cl)cc1 [2,4,5-trichloro-6-[2-[(1-methylpyridin-1-ium-4-yl)methylidene]hydrazinyl]pyridine-3-carbonitrile;chloride]",> 150 µM
20,"CC(NNC(=O)c1cc2ccccc2cc1O)=C1C(=O)c2ccccc2C1=O [N-[1-[1,3-bis(oxidanylidene)inden-2-yl]ethylideneamino]-3-oxidanyl-naphthalene-2-carboxamide]",> 150 µM

row,Compound,EC50
1,COc1ccc(NC(=S)NNC2=c3ccccc3=NC2=O)cc1 [SMR000413743],> 150 µM
2,"CN(C)S(=O)(=O)c1ccc(-c2csc(N=NCc3ccc(O)cc3)n2)cc1 [N,N-dimethyl-4-[2-[2-[(4-oxidanylidenecyclohexa-2,5-dien-1-ylidene)methyl]hydrazinyl]-1,3-thiazol-4-yl]benzenesulfonamide]",> 150 µM
3,CC(=N)C(C#N)C(=O)CSc1nc2cc(Cl)ccc2c(=O)n1Cc1ccco1 (stereo not given) [(E)-3-amino-2-[2-[7-chloro-3-(furan-2-ylmethyl)-4-oxoquinazolin-2-yl]sulfanylacetyl]but-2-enenitrile],> 150 µM
4,CC(N=Nc1nc2ccccc2[nH]1)c1ccc2c(c1)OCO2 (stereo not given) [SMR000354227],> 150 µM
5,N#CC(C(=O)CCl)c1nc2c(s1)CCc1ccccc1-2 (stereo not given) [MLS001171530],> 150 µM
6,O=C(O)c1ccc(N=NCc2ccc(OC(=O)c3ccccc3Cl)cc2)cc1 [MLS000589715],> 150 µM
7,C=CCn1c(SCC(=O)C(C#N)C(C)=N)nc2sc(C)c(C)c2c1=O (stereo not given),> 150 µM
8,CN1C(=O)/C(=N\NC(=O)c2cc(-c3cccs3)nc3ccccc23)c2ccccc21 [SMR000242891],> 150 µM
9,COC1=CC([N+](=O)[O-])=CC(/C=N/NC(=O)c2cc(-c3ccccc3)nc3ccccc23)C1=O (stereo not given),> 150 µM
10,"CNC(=Nc1cc(Cl)ccc1Cl)Sc1cc(O)n(-c2ccc(C(=O)OC)cc2)c1O [4-[3-[[(2,5-dichloroanilino)-methyliminomethyl]thio]-2,5-dioxo-1-pyrrolidinyl]benzoic acid methyl ester]",50 µM
11,"Cc1cccc(NC(=O)C2=C(N)C(C(=O)N3CCOCC3)/C(=N/c3c(C)cccc3C)S2)c1 (stereo not given) [3-amino-5-(2,6-dimethylphenyl)imino-N-(3-methylphenyl)-4-(morpholine-4-carbonyl)-2H-thiophene-2-carboxamide]",3.32 µM
12,Cc1nn(-c2ccccc2)c(C)c1CN=Nc1nc2ccccc2[nH]1,> 150 µM
13,O=C(N/N=C/C1C=C(Cl)C=C([N+](=O)[O-])C1=O)c1ccccc1NS(=O)(=O)c1cccs1 (stereo not given) [SMR000364876],> 150 µM
14,"COc1ccc2nc(-n3c(O)c[nH]c3=S)sc2c1 [3-(6-methoxy-1,3-benzothiazol-2-yl)-2-sulfanylidene-imidazolidin-4-one]",> 150 µM
15,"Cc1nn(-c2ccccc2)c(Cl)c1C1C2=C(CC(C)(C)CC2=O)OC(=N)C1C#N (stereo not given) [2-azanyl-4-(5-chloranyl-3-methyl-1-phenyl-pyrazol-4-yl)-7,7-dimethyl-5-oxidanylidene-6,8-dihydro-4H-chromene-3-carbonitrile]",> 150 µM
16,Cc1cc(N=NC(C)c2ccccc2O)nc(-c2ccccc2O)n1 (stereo not given),14 µM
17,"N#CC(C(=O)COc1ccccc1)c1nc2ccccc2s1 (stereo not given) [(2Z)-2-(3H-1,3-benzothiazol-2-ylidene)-3-keto-4-phenoxy-butyronitrile]",7.55 µM
18,"CC1(C)CC(=O)C(C2C3=C(CC(C)(C)CC3=O)Oc3c(Br)cc(Br)cc32)C(=O)C1 (stereo not given) [5,7-bis(bromanyl)-9-(4,4-dimethyl-2-oxidanyl-6-oxidanylidene-cyclohexen-1-yl)-3,3-dimethyl-4,9-dihydro-2H-xanthen-1-one]",24.8 µM
19,C=Nc1c(N(C(C)=O)c2ccc(Br)cc2)c(O)c2ccccc2c1O [MLS000700612],23.9 µM
20,CC(Oc1ccc(Cl)cc1Cl)C(=O)Nc1cc(=O)n(-c2ccccc2)[nH]1 (stereo not given) [SMR000195064],123 µM

row,Compound,EC50
1,O=C1C(=NNC(=S)Nc2ccccc2F)c2ccccc2N1Cc1ccc(F)cc1,0.607 µM
2,CCOc1ccc(NC(=S)NNC2=c3ccccc3=NC2=O)cc1,> 150 µM
3,Cc1ccc(NN=C(C=O)C(=O)c2ccc(Cl)cc2)cc1 [3-(4-chlorophenyl)-2-[(4-methylphenyl)hydrazinylidene]-3-oxopropanal],50 µM
4,"CC(N=Nc1nc(N2CCCCCC2)nc(N2CCCCCC2)n1)c1ccccc1 (stereo not given) [(1E)-1-phenylethanone (4,6-diazepan-1-yl-1,3,5-triazin-2-yl)hydrazone]",5.5 µM
5,CCCCCCC(N=O)c1ccccn1 (stereo not given),> 150 µM
6,COC(=O)/N=N/C=C1\C=[N+]([O-])c2ccccc2N1O [MLS001333201],> 150 µM
7,CCCCCCC1=Cc2c/c(=C3/NN=C(c4ccccc4)O3)c(=O)oc2=CC1=O [MLS000068623],> 150 µM
8,O=Nc1c(C2C(=O)Nc3cc(Br)ccc32)[nH]c2ccccc12 (stereo not given) [6-bromoindirubin-3-oxime],44.9 µM
9,"CCCCCCCn1[nH]c(C)c(C(=O)c2ccccc2)c1=O [4-benzoyl-2-heptyl-5-methyl-2,4-dihydro-3H-pyrazol-3-one]",> 150 µM
10,CCc1ccc(C2C(C#N)C(=N)C(C#N)(C#N)C3=CCC(C(C)(C)C)CC32)cc1 (stereo not given) [SMR000115124],5.84 µM
11,"COc1ccc(C(=O)Oc2ccc(C(C)=O)cc2)c(OC)c1 [(4-acetylphenyl) 2,4-dimethoxybenzoate]",> 150 µM
12,O=C1C(=NNC(=S)Nc2ccccc2F)c2ccccc2N1Cc1ccccc1 [SMR000314861],> 150 µM
13,"Cc1ccc(Nc2nc(N=NCc3ccc4c(c3)OCO4)nc(N3CCOCC3)n2)cc1 [2-N-(1,3-benzodioxol-5-ylmethylideneamino)-4-N-(4-methylphenyl)-6-morpholin-4-yl-1,3,5-triazine-2,4-diamine]",111 µM
14,"COc1cc(CN=Nc2nc(Nc3ccccc3)nc(-n3nc(C)cc3C)n2)cc(OC)c1OC [6-(3,5-dimethylpyrazol-1-yl)-N4-phenyl-N2-[(3,4,5-trimethoxyphenyl)methylideneamino]-1,3,5-triazine-2,4-diamine]",> 150 µM
15,COC1=CC([N+](=O)[O-])=CC(/C=N/NC(=O)C(C)Nc2cccc(C)c2)C1=O (stereo not given) [N'-[(1E)-(2-hydroxy-3-methoxy-5-nitrophenyl)methylene]-2-[(3-methylphenyl)amino]propanohydrazide],> 150 µM
16,N#CC(C(=O)c1ccc([N+](=O)[O-])o1)c1nc2ccccc2[nH]1 (stereo not given),27.6 µM
17,CC(N=Nc1nc2ccccc2s1)c1ccc2c(c1)OCO2 (stereo not given),> 150 µM
18,COc1ccc(CC(=O)N/N=C/C2C=C([N+](=O)[O-])C=C(Br)C2=O)cc1 (stereo not given),> 150 µM
19,CC(=O)c1cccc2c1NC(=C1Nc3ccccc3C1=O)C2=O [(2E)-7-ethanoyl-2-(3-oxidanylidene-1H-indol-2-ylidene)-1H-indol-3-one],116 µM
20,CCCCN1C(=O)NC(=O)C(=C(C)Nc2ccc(OCC)cc2)C1=O [SMR000058103],> 150 µM
